From patent publication EP0126813A1, “Process for preparing imidazole compounds” (Newport Pharmaceuticals International, Inc., priority 1983, dated 1984)

Columns and labels:
Lymphocyte [1] = assay: LPS induced lymphocyte proliferation (mitogen induced lymphocyte proliferation); assay type: cell-based; settings: for X̄ cpm: control 7044 cpm
Source text: In Table 1 the effect of NPT 15459 on LPS Induced Proliferation is described.

Lymphocyte [2] = assay: Con A induced lymphocyte proliferation (mitogen induced lymphocyte proliferation); assay type: cell-based; settings: for X̄ cpm: control 35,059 cpm
Source text: In Table 1 the effect of NPT 15459 on con A Induced Proliferation is described. The procedure is described in Simon U.S. patent 4,221,909, column 24, line 12 to column 25, line 10.

[3] = Solubility (summary of chemical properties); assay type: physicochemical
[4] = system: SRBC Induced Antibody Formation; assay: SRBC induced antibody formation; assay type: in vivo; settings: for X̄ PFC/10^6 Cells: saline control 53
Source text: In Table 2 the SRBC Induced Antibody Formation procedure employed was that shown in Simon EPO application 0036077 page 46.

[5] = Lymphocyte, 5.0 µg/ml, read-out: Percent Change from Control
[6] = Lymphocyte, 10.0 µg/ml, read-out: Percent Change from Control

CCCCCC[C@H]([C@H](C)O)n1cnc(C(N)=O)c1N (relative stereo) [NPT 15459, erythro-3-(2-hydroxy-3-nonyl)-4-amino-imidazole-5-carboxamide]
X̄ cpm (Lymphocyte [1]; 5.0 µg/ml): 4128 cpm
X̄ cpm (Lymphocyte [1]; 10.0 µg/ml): 2449 cpm
X̄ cpm (Lymphocyte [1]; .02 µg/ml): 6184 cpm
X̄ cpm (Lymphocyte [1]; .5 µg/ml): 6676 cpm
inhibition at 5 µg/mL (Lymphocyte [1]; [5]): 42%
inhibition at 10 µg/mL (Lymphocyte [1]; [6]): 66%
inhibition at 0.02 µg/mL (Lymphocyte [1]; Lymphocyte, .02 µg/ml, read-out: Percent Change from Control): 12%
inhibition at 0.5 µg/mL (Lymphocyte [1]; Lymphocyte, .5 µg/ml, read-out: Percent Change from Control): 6%
X̄ cpm (Lymphocyte [2]; 5.0 µg/ml): 20,095 cpm
X̄ cpm (Lymphocyte [2]; 10.0 µg/ml): 12,736 cpm
X̄ cpm (Lymphocyte [2]; .020 µg/ml): 35,747 cpm
X̄ cpm (Lymphocyte [2]; .500 µg/ml): 30,920 cpm
inhibition at 5 µg/mL (Lymphocyte [2]; [5]): 43%
inhibition at 10 µg/mL (Lymphocyte [2]; [6]): 65%
inhibition at 0.02 µg/mL (Lymphocyte [2]; Lymphocyte, .020 µg/ml, read-out: Percent Change from Control): -2%
inhibition at 0.5 µg/mL (Lymphocyte [2]; Lymphocyte, .500 µg/ml, read-out: Percent Change from Control): 12%
Solubility ([3]; HCl (Aq), acetic acid, methanol, ethanol): very soluble
Solubility ([3]; benzene, water): insoluble
Solubility ([3]; isopropanol): soluble
Percent Change from Control ([4]; 5.0 mg/kg): +24%
X̄ PFC/10^6 Cells ([4]; 5.0 mg/kg): 66 PFC/10^6 Cells
Percent Change from Control ([4]; .05 mg/kg): +196%
X̄ PFC/10^6 Cells ([4]; .05 mg/kg): 157 PFC/10^6 Cells
Percent Change from Control ([4]; .5 mg/kg): +126%
X̄ PFC/10^6 Cells ([4]; .5 mg/kg): 120 PFC/10^6 Cells
